Experimental data from article PMC6886798, “Expression of myeloid Src-family kinases is associated with poor prognosis in AML and influences Flt3-ITD kinase inhibitor acquired resistance” (PLoS ONE, 2019).

Tests used:
Assay in all cases: KINOMEscan
Format in all cases: binding
Conditions in all cases: 1.0 µM
[1] = molecular target: T1, ABL1(Q252H)-phosphorylated (Homo sapiens, UniProt P00519, Q252H)
T1 construct: purchased Eurofins/DiscoverX KINOMEscan scanMAX
Description: (§1) Kinase retention to the immobilized ligand is then measured using quantitative real-time PCR for each kinase-specific DNA barcode.

ADCK3 = molecular target: T2, ADCK3 (Homo sapiens, UniProt Q8NI60)
T2 construct: purchased Eurofins/DiscoverX KINOMEscan scanMAX
Description: as §1

AURKA = molecular target: T3, AURKA (Homo sapiens, UniProt O14965)
T3 construct: purchased Eurofins/DiscoverX KINOMEscan scanMAX
Description: as §1

AXL = molecular target: T4, AXL (Homo sapiens, UniProt P30530)
T4 construct: purchased Eurofins/DiscoverX KINOMEscan scanMAX
T4 sequence (P30530 26-894): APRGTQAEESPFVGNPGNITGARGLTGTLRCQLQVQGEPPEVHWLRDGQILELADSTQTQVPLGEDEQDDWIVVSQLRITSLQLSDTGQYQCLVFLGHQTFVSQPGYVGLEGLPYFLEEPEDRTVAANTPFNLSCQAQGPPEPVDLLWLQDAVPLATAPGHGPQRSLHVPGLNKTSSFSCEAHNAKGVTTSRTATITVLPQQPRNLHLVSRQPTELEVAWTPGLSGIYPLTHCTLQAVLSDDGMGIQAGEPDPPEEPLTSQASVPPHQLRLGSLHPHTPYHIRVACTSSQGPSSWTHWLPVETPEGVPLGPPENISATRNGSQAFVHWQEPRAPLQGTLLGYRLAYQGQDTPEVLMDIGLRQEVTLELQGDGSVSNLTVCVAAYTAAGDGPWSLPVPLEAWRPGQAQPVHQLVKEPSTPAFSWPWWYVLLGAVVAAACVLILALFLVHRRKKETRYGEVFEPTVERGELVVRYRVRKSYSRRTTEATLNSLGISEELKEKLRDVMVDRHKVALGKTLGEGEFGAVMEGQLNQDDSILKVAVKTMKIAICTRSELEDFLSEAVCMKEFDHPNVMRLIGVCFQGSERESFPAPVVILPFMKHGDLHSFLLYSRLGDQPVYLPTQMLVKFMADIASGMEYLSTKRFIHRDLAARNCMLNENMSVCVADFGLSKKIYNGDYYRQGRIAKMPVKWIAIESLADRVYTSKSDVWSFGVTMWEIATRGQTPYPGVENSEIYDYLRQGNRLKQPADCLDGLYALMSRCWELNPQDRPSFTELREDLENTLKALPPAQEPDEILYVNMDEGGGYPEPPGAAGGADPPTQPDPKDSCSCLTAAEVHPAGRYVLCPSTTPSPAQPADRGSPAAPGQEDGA
Description: as §1

BMPR2 = molecular target: T5, BMPR2 (Homo sapiens, UniProt Q13873)
T5 construct: purchased Eurofins/DiscoverX KINOMEscan scanMAX
Description: as §1

CDK4 = molecular target: T6, CDK4 (Homo sapiens, UniProt P11802)
T6 construct: purchased Eurofins/DiscoverX KINOMEscan scanMAX
Description: as §1

DDR1 = molecular target: T7, DDR1 (Homo sapiens, UniProt Q08345)
T7 construct: purchased Eurofins/DiscoverX KINOMEscan scanMAX
Description: as §1

DMPK2 = molecular target: T8, DMPK2 (Homo sapiens, UniProt Q6DT37)
T8 construct: purchased Eurofins/DiscoverX KINOMEscan scanMAX
Description: as §1

EPHA2 = molecular target: T9, EPHA2 (Homo sapiens, UniProt P29317)
T9 construct: purchased Eurofins/DiscoverX KINOMEscan scanMAX
T9 sequence (P29317 24-976): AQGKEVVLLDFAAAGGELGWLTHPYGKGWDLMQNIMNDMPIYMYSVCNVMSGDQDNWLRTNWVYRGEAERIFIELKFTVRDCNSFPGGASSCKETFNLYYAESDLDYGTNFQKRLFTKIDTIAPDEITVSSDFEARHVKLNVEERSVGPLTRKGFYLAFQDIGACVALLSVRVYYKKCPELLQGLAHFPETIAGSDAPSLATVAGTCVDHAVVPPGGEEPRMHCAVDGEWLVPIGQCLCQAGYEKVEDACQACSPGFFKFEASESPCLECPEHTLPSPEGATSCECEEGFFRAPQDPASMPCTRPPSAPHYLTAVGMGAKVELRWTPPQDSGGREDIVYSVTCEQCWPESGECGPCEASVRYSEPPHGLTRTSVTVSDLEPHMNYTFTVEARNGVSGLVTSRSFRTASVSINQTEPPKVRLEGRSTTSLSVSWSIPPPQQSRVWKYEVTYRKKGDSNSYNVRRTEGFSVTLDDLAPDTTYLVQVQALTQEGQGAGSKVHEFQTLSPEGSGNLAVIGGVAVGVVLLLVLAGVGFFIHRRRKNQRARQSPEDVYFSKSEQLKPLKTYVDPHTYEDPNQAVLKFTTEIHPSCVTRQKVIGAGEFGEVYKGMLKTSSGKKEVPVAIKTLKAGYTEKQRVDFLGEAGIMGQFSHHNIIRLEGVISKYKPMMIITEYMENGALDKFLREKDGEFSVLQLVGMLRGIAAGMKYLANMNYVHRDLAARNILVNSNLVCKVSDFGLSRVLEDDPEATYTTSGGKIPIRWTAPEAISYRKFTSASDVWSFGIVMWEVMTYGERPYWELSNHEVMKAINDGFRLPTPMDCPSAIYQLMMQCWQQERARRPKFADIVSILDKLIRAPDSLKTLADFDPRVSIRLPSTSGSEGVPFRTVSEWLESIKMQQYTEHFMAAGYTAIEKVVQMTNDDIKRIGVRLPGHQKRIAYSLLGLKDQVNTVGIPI
Description: as §1

EPHA6 = molecular target: T10, EPHA6 (Homo sapiens, UniProt Q9UF33)
T10 construct: purchased Eurofins/DiscoverX KINOMEscan scanMAX
T10 sequence (Q9UF33 23-1036): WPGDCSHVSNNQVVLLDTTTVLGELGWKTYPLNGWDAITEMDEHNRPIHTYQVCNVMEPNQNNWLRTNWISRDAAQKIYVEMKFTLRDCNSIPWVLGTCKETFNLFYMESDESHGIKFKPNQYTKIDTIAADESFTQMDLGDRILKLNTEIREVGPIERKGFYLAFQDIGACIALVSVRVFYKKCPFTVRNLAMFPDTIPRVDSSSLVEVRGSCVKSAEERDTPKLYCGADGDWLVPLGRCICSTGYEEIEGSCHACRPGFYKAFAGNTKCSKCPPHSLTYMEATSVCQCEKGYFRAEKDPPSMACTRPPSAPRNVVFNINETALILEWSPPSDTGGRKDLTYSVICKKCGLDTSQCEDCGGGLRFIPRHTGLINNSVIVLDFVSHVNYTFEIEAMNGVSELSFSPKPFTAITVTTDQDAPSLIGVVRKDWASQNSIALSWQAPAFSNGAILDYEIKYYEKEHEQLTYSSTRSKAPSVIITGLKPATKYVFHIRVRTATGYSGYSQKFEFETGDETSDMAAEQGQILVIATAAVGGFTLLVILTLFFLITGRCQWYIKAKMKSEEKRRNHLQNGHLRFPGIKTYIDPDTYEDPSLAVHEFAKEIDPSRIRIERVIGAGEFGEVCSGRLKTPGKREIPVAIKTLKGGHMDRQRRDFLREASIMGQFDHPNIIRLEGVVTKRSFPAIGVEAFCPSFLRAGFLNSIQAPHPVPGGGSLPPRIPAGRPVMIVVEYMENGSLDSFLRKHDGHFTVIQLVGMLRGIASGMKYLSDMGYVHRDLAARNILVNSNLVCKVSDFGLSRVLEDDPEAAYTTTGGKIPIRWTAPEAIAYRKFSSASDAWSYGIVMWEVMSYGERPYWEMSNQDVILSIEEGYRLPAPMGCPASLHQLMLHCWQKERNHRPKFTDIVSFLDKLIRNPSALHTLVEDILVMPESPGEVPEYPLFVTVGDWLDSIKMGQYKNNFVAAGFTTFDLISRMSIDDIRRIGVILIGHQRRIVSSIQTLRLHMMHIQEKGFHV
Description: as §1

FLT3(K663Q) = molecular target: T11, FLT3(K663Q) (Homo sapiens, UniProt P36888, K663Q)
T11 construct: purchased Eurofins/DiscoverX KINOMEscan scanMAX
Description: as §1

GCN2(Kin.Dom.2,S808G) = molecular target: T12, GCN2(Kin.Dom.2,S808G) (Homo sapiens, UniProt Q9P2K8, S808G)
T12 construct: GCN2(Kin.Dom.2,S808G); purchased Eurofins/DiscoverX KINOMEscan scanMAX
Description: as §1

GRK4 = molecular target: T13, GRK4 (Homo sapiens, UniProt P32298)
T13 construct: purchased Eurofins/DiscoverX KINOMEscan scanMAX
T13 sequence (P32298 whole entry): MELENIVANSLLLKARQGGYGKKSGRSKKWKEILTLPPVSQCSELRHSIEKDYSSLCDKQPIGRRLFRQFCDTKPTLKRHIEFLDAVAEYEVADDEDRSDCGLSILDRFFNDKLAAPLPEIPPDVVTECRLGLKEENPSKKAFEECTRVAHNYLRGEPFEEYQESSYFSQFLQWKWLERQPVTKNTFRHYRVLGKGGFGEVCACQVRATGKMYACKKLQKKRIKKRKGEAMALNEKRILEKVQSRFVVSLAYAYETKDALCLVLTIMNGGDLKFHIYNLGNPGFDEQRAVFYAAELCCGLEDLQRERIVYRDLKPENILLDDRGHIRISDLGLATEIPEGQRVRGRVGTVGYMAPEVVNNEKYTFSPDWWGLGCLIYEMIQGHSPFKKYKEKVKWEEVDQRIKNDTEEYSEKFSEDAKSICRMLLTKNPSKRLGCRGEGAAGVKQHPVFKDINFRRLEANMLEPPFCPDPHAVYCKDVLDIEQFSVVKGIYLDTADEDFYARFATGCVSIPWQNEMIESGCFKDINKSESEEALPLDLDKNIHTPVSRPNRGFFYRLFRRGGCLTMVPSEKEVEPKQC
Description: as §1

HIPK1 = molecular target: T14, HIPK1 (Homo sapiens, UniProt Q86Z02)
T14 construct: purchased Eurofins/DiscoverX KINOMEscan scanMAX
Description: as §1

LATS1 = molecular target: T15, LATS1 (Homo sapiens, UniProt O95835)
T15 construct: purchased Eurofins/DiscoverX KINOMEscan scanMAX
Description: as §1

MAK = molecular target: T16, MAK (Homo sapiens, UniProt P20794)
T16 construct: purchased Eurofins/DiscoverX KINOMEscan scanMAX
Description: as §1

MAP4K2 = molecular target: T17, MAP4K2 (Homo sapiens, UniProt Q12851)
T17 construct: purchased Eurofins/DiscoverX KINOMEscan scanMAX
Description: as §1

MRCKA = molecular target: T18, MRCKA (Homo sapiens, UniProt Q5VT25)
T18 construct: purchased Eurofins/DiscoverX KINOMEscan scanMAX
Description: as §1

NEK1 = molecular target: T19, NEK1 (Homo sapiens, UniProt Q96PY6)
T19 construct: purchased Eurofins/DiscoverX KINOMEscan scanMAX
Description: as §1

NEK10 = molecular target: T20, NEK10 (Homo sapiens, UniProt Q6ZWH5)
T20 construct: purchased Eurofins/DiscoverX KINOMEscan scanMAX
Description: as §1

NEK9 = molecular target: T21, NEK9 (Homo sapiens, UniProt Q8TD19)
T21 construct: purchased Eurofins/DiscoverX KINOMEscan scanMAX
Description: as §1

NIM1 = molecular target: T22, NIM1 (Homo sapiens, UniProt Q8IY84)
T22 construct: purchased Eurofins/DiscoverX KINOMEscan scanMAX
Description: as §1

PAK2 = molecular target: T23, PAK2 (Homo sapiens, UniProt Q13177)
T23 construct: purchased Eurofins/DiscoverX KINOMEscan scanMAX
Description: as §1

PAK6 = molecular target: T24, PAK6 (Homo sapiens, UniProt Q9NQU5)
T24 construct: purchased Eurofins/DiscoverX KINOMEscan scanMAX
Description: as §1

PCTK1 = molecular target: T25, PCTK1 (Homo sapiens, UniProt Q00536)
T25 construct: purchased Eurofins/DiscoverX KINOMEscan scanMAX
Description: as §1

PDGFRA = molecular target: T26, PDGFRA (Homo sapiens, UniProt P16234)
T26 construct: purchased Eurofins/DiscoverX KINOMEscan scanMAX
Description: as §1

PIK3C2B = molecular target: T27, PIK3C2B (Homo sapiens, UniProt O00750)
T27 construct: purchased Eurofins/DiscoverX KINOMEscan scanMAX
Description: as §1

PIP5K1C = molecular target: T28, PIP5K1C (Homo sapiens, UniProt O60331)
T28 construct: purchased Eurofins/DiscoverX KINOMEscan scanMAX
Description: as §1

PLK3 = molecular target: T29, PLK3 (Homo sapiens, UniProt Q9H4B4)
T29 construct: purchased Eurofins/DiscoverX KINOMEscan scanMAX
Description: as §1

PRKCQ = molecular target: T30, PRKCQ (Homo sapiens, UniProt Q04759)
T30 construct: purchased Eurofins/DiscoverX KINOMEscan scanMAX
Description: as §1

PRKD3 = molecular target: T31, PRKD3 (Homo sapiens, UniProt O94806)
T31 construct: purchased Eurofins/DiscoverX KINOMEscan scanMAX
Description: as §1

PYK2 = molecular target: T32, PYK2 (Homo sapiens, UniProt Q14289)
T32 construct: purchased Eurofins/DiscoverX KINOMEscan scanMAX
Description: as §1

SGK3 = molecular target: T33, SGK3 (Homo sapiens, UniProt Q96BR1)
T33 construct: purchased Eurofins/DiscoverX KINOMEscan scanMAX
Description: as §1

TAOK2 = molecular target: T34, TAOK2 (Homo sapiens, UniProt Q9UL54)
T34 construct: purchased Eurofins/DiscoverX KINOMEscan scanMAX
Description: as §1

TIE2 = molecular target: T35, TIE2 (Homo sapiens, UniProt Q02763)
T35 construct: purchased Eurofins/DiscoverX KINOMEscan scanMAX
T35 sequence (Q02763 23-1124): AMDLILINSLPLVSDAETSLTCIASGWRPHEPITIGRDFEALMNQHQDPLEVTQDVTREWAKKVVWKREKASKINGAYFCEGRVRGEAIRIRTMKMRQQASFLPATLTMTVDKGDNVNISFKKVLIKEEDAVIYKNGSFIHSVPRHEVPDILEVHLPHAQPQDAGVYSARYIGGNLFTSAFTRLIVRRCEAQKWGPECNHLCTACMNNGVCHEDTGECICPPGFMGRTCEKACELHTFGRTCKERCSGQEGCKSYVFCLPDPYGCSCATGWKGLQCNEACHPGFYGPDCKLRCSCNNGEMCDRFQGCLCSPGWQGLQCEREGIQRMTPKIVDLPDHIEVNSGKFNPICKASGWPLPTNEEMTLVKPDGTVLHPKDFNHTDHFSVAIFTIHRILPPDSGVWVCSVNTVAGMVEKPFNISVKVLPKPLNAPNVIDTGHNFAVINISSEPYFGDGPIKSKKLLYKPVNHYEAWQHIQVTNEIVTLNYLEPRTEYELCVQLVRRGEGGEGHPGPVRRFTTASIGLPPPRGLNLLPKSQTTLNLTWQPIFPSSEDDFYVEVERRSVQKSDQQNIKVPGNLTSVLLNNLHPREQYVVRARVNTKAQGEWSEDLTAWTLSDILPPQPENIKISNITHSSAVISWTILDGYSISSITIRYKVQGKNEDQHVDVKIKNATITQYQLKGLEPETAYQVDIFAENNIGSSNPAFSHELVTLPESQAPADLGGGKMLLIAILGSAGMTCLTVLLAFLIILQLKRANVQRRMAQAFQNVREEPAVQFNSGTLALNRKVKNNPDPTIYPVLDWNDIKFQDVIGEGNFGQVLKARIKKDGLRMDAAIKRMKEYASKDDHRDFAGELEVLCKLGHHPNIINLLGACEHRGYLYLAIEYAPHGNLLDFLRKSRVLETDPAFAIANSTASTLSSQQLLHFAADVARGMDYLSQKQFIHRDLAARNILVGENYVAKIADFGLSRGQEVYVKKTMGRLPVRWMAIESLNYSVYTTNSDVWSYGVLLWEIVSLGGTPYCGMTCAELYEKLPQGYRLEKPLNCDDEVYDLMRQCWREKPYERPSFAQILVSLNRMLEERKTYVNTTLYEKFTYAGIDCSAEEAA
Description: as §1

TLK1 = molecular target: T36, TLK1 (Homo sapiens, UniProt Q9UKI8)
T36 construct: purchased Eurofins/DiscoverX KINOMEscan scanMAX
Description: as §1

TNK1 = molecular target: T37, TNK1 (Homo sapiens, UniProt Q13470)
T37 construct: purchased Eurofins/DiscoverX KINOMEscan scanMAX
Description: as §1

TXK = molecular target: T38, TXK (Homo sapiens, UniProt P42681)
T38 construct: DNA tag (qPCR barcode); purchased Eurofins/DiscoverX KINOMEscan scanMAX
T38 sequence (P42681 whole entry): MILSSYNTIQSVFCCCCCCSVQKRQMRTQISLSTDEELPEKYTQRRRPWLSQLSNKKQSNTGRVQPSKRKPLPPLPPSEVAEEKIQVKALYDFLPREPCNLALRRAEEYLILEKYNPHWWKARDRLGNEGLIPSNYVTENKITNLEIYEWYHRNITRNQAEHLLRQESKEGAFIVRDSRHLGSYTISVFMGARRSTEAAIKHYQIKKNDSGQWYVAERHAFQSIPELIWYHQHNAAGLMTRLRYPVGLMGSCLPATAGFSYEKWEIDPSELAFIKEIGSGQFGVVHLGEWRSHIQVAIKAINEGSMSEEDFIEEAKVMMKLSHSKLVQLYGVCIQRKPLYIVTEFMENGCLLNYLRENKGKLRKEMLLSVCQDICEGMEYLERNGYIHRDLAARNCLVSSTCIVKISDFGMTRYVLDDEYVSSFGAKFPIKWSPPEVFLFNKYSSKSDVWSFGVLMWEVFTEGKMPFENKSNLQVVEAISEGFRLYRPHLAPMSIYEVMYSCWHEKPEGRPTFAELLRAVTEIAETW
Description: as §1

[2] = molecular target: T39, TYK2(JH2domain-pseudokinase) (Homo sapiens, UniProt P29597)
T39 construct: TYK2(JH2domain-pseudokinase); DNA tag (qPCR barcode); purchased Eurofins/DiscoverX KINOMEscan scanMAX
Description: as §1

WEE1 = molecular target: T40, WEE1 (Homo sapiens, UniProt P30291)
T40 construct: DNA tag (qPCR barcode); purchased Eurofins/DiscoverX KINOMEscan scanMAX
Description: as §1

WNK3 = molecular target: T41, WNK3 (Homo sapiens, UniProt Q9BYP7)
T41 construct: DNA tag (qPCR barcode); purchased Eurofins/DiscoverX KINOMEscan scanMAX
Description: as §1

p38-beta = molecular target: T42, p38-beta (Homo sapiens, UniProt Q15759)
T42 construct: purchased Eurofins/DiscoverX KINOMEscan scanMAX
Description: as §1

Compound: CN1CCN(C2CCC(n3cc(-c4ccc(Oc5ccccc5)cc4)c4c(N)ncnc43)CC2)CC1 (stereo not drawn) [A-419259]
- % Control [1]: 0.5%
- % Control (ADCK3): 100%
- % Control (AURKA): 36%
- % Control (AXL): 6.1%
- % Control (BMPR2): 97%
- % Control (CDK4): 91%
- % Control (DDR1): 65%
- % Control (DMPK2): 36%
- % Control (EPHA2): 100%
- % Control (EPHA6): 94%
- % Control (FLT3(K663Q)): 5.6%
- % Control (GCN2(Kin.Dom.2,S808G)): 79%
- % Control (GRK4): 100%
- % Control (HIPK1): 80%
- % Control (LATS1): 30%
- % Control (MAK): 100%
- % Control (MAP4K2): 98%
- % Control (MRCKA): 98%
- % Control (NEK1): 100%
- % Control (NEK10): 100%
- % Control (NEK9): 90%
- % Control (NIM1): 100%
- % Control (PAK2): 91%
- % Control (PAK6): 84%
- % Control (PCTK1): 99%
- % Control (PDGFRA): 1.1%
- % Control (PIK3C2B): 10%
- % Control (PIP5K1C): 89%
- % Control (PLK3): 72%
- % Control (PRKCQ): 66%
- % Control (PRKD3): 17%
- % Control (PYK2): 88%
- % Control (SGK3): 77%
- % Control (TAOK2): 85%
- % Control (TIE2): 15%
- % Control (TLK1): 93%
- % Control (TNK1): 0%
- % Control (TXK): 13%
- % Control [2]: 95%
- % Control (WEE1): 100%
- % Control (WNK3): 46%
- % Control (p38-beta): 100%
